From patent US4897391A, “Tricyclic anti-allergy, antiinflammatory and anti-hyperproliferative compounds” (Schering Corporation, priority 1988, dated 1990) come the findings set out here.

Test [1] relates to Reversed Passive Arthus Reaction (paw swelling). Nature of the test: Reversed Passive Arthus Reaction (RPAR) Assay. In kind it is in vivo, Male Lewis inbred albino rats. The conditions noted are these: 50 mg/kg p.o.; rat. An excerpt: Male Lewis inbred albino rats weighing 180-220 grams obtained from Charles River Breeding Laboratories are used in these experiments. House the rats 3 animals/cage and allow food and water ad libitum. Number the animals 1 to 3 in each cage and color mark them for identification purposes.
Prepare all reagents and drugs just prior to the study. Without shaking, solubilize crystallized and lyophilized bovine serum albumin (BSA), obtained from Sigma Chemical Company, in cold sterile pyrogen-free saline (10 mg/ml PFS). Suspend lyophilized anti-bovine serum albumin (IgG Fraction), obtained from Cappel Laboratories, in sterile distilled water and dilute with cold pyrogen-free saline (PFS) just prior to use. The final concentration of anti-bovine serum albumin will be 0.5 mg/ml of PFS. Both BSA and anti-BSA solutions should be iced during use. Suspend or solubilize drugs in an aqueous solution of methyl cellulose (MC) with a homogenizer just prior to administration.
Dose groups of animals (6/group) with drug in methyl cellulose (MC) by gastric lavage one hour prior to sensitization with BSA. Give controls MC alone and include drug-standard in each assay for verification purposes. Prepare drugs so as to provide a dose for a 200 gram animal which is equivalent to the mg/kg dose for the experiment. Thus each rat receives an oral dose in a volume of approximately 2.0 ml. […]

Test [2] deals with T1, 5-lipoxygenase (Mus musculus, UniProt P48999).
T1 construct: Preincubate MC-9 cells (0.39 ml at 7.5×10^6 cells/ml) without or with test compound; endogenous in cells; host or cells: MC-9 murine mast cell clone (interleukin-3-dependent)
T1 sequence (P48999 1-674): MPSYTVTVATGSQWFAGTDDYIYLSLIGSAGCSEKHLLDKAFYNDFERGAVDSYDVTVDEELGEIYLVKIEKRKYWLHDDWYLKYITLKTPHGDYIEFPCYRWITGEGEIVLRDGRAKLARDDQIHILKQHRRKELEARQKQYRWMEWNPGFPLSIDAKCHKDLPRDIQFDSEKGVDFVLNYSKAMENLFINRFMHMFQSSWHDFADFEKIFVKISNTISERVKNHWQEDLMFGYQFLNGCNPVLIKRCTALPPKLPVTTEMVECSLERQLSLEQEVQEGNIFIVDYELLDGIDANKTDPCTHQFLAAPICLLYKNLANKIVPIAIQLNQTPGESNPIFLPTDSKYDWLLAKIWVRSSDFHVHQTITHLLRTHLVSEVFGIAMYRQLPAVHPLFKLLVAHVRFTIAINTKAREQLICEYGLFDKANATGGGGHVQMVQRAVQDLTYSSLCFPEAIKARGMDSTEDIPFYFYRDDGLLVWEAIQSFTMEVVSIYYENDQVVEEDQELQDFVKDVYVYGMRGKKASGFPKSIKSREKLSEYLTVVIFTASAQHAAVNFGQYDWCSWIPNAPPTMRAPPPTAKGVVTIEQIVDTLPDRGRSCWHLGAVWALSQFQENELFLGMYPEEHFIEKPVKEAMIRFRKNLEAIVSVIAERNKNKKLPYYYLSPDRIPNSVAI
Nature of the test: 5-Lipoxygenase Assay (MC-9 mast cells, 5-HETE and LTC4 production). In kind it is cell-based, murine. The conditions noted are these: MC9, 50 μM dose; MC-9 cells; read-out: % Inhibition 5-HETE. How it is done: Preincubate MC-9 cells (0.39 ml at 7.5×10^6 cells/ml) without or with test compound dissolved in dimethylsulfoxide (DMSO) vehicle (to a final volume 1 μl) for 4 minutes then incubate for 5 minutes with [^14 C]arachidonic acid (Amersham, 59 Ci/mole) at a 9 μM final concentration, and A23187 (Calbiochem) at a 1 μM final concentration in 10 μl of water:ethanol (9:1). Stop the reaction by addition of methanol (0.4 ml), and remove cellular debris by centrifugation. Run aliquots (250 μl) of the incubations on a Waters two-pump HPLC system fitted with a Waters radial compression column (C18, 10 micron, 8×100 mm, micro-Bondapak) and C18 "Guard Pak". Initially elute the column at 3 ml/min with water:methanol:acetic acid (67:33:0.08) containing 1 mM EDTA adjusted to pH 6.0 with ammonium hydroxide (Pump A). At 4 minutes, establish a linear gradient to reach 100% methanol (Pump B) at 9 minutes. Between 13 and 14 minutes, exchange for the initial eluting solvent and by 19 minutes the column will be reequilibrated for the next sample. Analyze the effluent by a continuous flow radioactivity monitor (model ROMONA-D) interfaced with a Hewlett Packard Lab Automation System for quantitation of radioactive products. […] Doses in table 2 are 50 μM unless otherwise noted.

The subject of test [3] is Peptidoleukotriene Release in Guinea Pig Lung. Nature of the test: Peptidoleukotriene Release Inhibition in Lung Assay. The class given is cell-based. The settings on record: Cavia porcellus; final concentration of 50 μm (so in the source); ovalbumin challenge, sensitized guinea pig lung. An excerpt: The anti-allergy method of this invention is identified by tests that measure inhibition of leukotriene release in sensitized guinea pigs by compounds of the invention. This procedure is as follows.
First, kill sensitized guinea pigs by a blow to the head, remove the lungs and clean them of visible connective tissue, trachea and large blood vessels. Slice the lungs from individual animals into fragments approximately 1 mm in thickness using a McIlwain tissue chopper and wash them with oxygenated Tyrode's buffer. Transfer weighed aliquots (approximately 400 mg wet weight) of lung into vials containing 2 ml of fresh Tyrode's solution (containing 10 mM cysteine) and incubate in the presence or absence of test compound for 12 minutes at 37° C., challenge the tissues with 20 μg ovalbumin/ml (final concentration) and incubate for 15 minutes. To measure leukotriene release, extract an aliquot of supernatant fluid with 4 volumes of 100% ethanol. After removal of the precipitated protein, dry the clear fluid under a stream of N2 gas. Measure the leukotriene content by a radioimmunoassay using [^3 H]LTC4 (leukotriene C4) and antiserum obtained from New England Nuclear. […] Calculate percent inhibition of leukotriene release by comparing for each lung the release in the presence of the test compound to that in the absence of test compound.

The structures appear in SMILES notation.

The inhibition is how much of the control response was suppressed. Consider `COc1cc(OC)c2c(C)c3n(c(=O)c2c1)CCCC3` [Compound E, 8,10-bis(methoxy)-1,2,3,4-tetrahydro-11-methyl-6H-benzo[b]quinolizin-6-one], for which the “inhibition of paw swelling” value in test [1] came to 59%. Further, the inhibition at 50 µM in test [2] came out at 8%; in test [3], 33%.
